Data: patent US8859541B2, “6-alkynylpyridines” (Boehringer Ingelheim International GmbH, priority 2012, dated 2014)

Tests used:
XIAP BIR3 = molecular target: T1, XIAP BIR3 (Homo sapiens, UniProt P98170); experiment: XIAP BIR3 binding assay (DELFIA), displacement of SMAC peptide; settings: GST-fusion BIR3 domain (aa 241 to 356) 10 nM, SMAC peptide 10 nM; activity of the (S)-isomers
T1 construct: covering amino acids 241 to 356; XIAP BIR3; made in house; host or cells: E. coli
How it was run: (§1)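 Each BIR3 domain (10 nM) incubated with biotinylated N-terminal SMAC peptide (10 nM) and compound for 1 h at room temp in Tris/NaCl buffer with BSA, DTT and Triton X-100. Captured on streptavidin plates; bound BIR3 detected by Eu-labelled anti-GST time-resolved fluorescence, giving IC50 values.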

cIAP1 BIR3 = molecular target: T2, cIAP1 BIR3 (Homo sapiens, UniProt Q13490); experiment: cIAP1 BIR3 binding assay (DELFIA), displacement of SMAC peptide; settings: GST-fusion BIR3 domain (aa 256 to 363) 10 nM, SMAC peptide 10 nM; activity of the (S)-isomers
T2 construct: covering amino acids 256 to 363; cIAP1 BIR3; made in house; host or cells: E. coli
T2 sequence (Q13490 256-363): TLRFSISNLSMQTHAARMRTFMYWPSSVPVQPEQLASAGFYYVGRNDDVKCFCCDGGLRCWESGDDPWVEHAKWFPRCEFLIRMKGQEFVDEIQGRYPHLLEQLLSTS
How it was run: as §1

T1 sequence (P98170 241-356): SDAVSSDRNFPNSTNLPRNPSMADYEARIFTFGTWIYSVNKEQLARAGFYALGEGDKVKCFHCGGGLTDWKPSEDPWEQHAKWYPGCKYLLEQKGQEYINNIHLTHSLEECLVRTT

Row | SMILES | IC50 (XIAP BIR3) | IC50 (cIAP1 BIR3)
1 | CNC(C)C(=O)Nc1cc(C(F)(F)F)cc(C#Cc2ccccc2)n1 (stereo not shown) [Example 198, 2-(methylamino)-N-[6-(2-phenylethynyl)-4-(trifluoromethyl)pyridin-2-yl]propanamide] | 10500 nM | 4930 nM
2 | CC(N)C(=O)Nc1cc2ccccc2c(C#Cc2ccccn2)n1 (stereo not shown) [Example 206, 2-amino-N-[1-(2-pyridin-2-ylethynyl)isoquinolin-3-yl]-propanamide] | 3620 nM | 880 nM
3 | CC(N)C(=O)Nc1cccc(C#Cc2cccc(C(=O)N3CCOCC3)c2)n1 (stereo not shown) [Example 213, 2-amino-N-[6-[2-[3-(morpholine-4-carbonyl)-phenyl]ethynyl]pyridin-2-yl]propanamide] | 9950 nM | 2120 nM
4 | CC(N)C(=O)Nc1cccc(C#Cc2cccnc2)n1 (stereo not shown) [Example 215, 2-amino-N-[6-(2-pyridin-3-ylethynyl)pyridin-2-yl]propanamide] | 9700 nM | 985 nM
5 | COC(=O)c1cccc(C#Cc2cccc(NC(=O)C(C)N)n2)c1 (stereo not shown) [Example 223, methyl 3-[2-[6-[[2-aminopropanoyl]amino]pyridin-2-yl]ethynyl]benzoate] | 2460 nM | 2620 nM
6 | Cc1cc(C)cc(C#Cc2nc(NC(=O)C(C)N)cc3ccccc23)c1 (stereo not shown) [Example 228, 2-amino-N-[1-[2-(3,5-dimethyl-phenyl)ethynyl]isoquinolin-3-yl]propanamide] | 1920 nM | 1470 nM
7 | CC(N)C(=O)Nc1cc2ccccc2c(C#Cc2cc(F)cc(F)c2)n1 (stereo not shown) [Example 229, 2-amino-N-[1-[2-(3,5-difluorophenyl)ethynyl]-isoquinolin-3-yl]propanamide] | 2420 nM | 589 nM
8 | Cc1ccccc1C#Cc1cccc(NC(=O)C(C)N)n1 (stereo not shown) [Example 232, 2-amino-N-[6-[2-(2-methylphenyl)ethynyl]pyridin-2-yl]propanamide] | 1250 nM | 672 nM
9 | CC(N)C(=O)Nc1cccc(C#Cc2ccc3cc[nH]c3c2)n1 (stereo not shown) [Example 234, 2-amino-N-[6-[2-(1H-indol-6-yl)ethynyl]pyridin-2-yl]propanamide] | 2730 nM | 1230 nM
10 | CC(N)C(=O)Nc1cccc(C#Cc2ccoc2)n1 (stereo not shown) [Example 240, 2-amino-N-[6-[2-(furan-3-yl)ethynyl]pyridin-2-yl]propanamide] | 3020 nM | 1340 nM

Stronger by IC50 (XIAP BIR3), values ahead:

Row | IC50 (XIAP BIR3) | IC50 (cIAP1 BIR3) | SMILES
11 | 1200 nM | 332 nM | CC(N)C(=O)Nc1cc2ccccc2c(C#Cc2cscn2)n1 (stereo not shown) [Example 226, 2-amino-N-[1-[2-(1,3-thiazol-4-yl)ethynyl]isoquinolin-3-yl]propanamide]
12 | 895 nM | 206 nM | CC(N)C(=O)Nc1cccc(C#Cc2cccs2)n1 (stereo not shown) [Example 217, 2-amino-N-[6-(2-thiophen-2-ylethynyl)pyridin-2-yl]propanamide]
13 | 760 nM | 251 nM | CC(N)C(=O)Nc1cc2ccccc2c(C#Cc2ccsc2)n1 (stereo not shown) [Example 203, 2-amino-N-[1-(2-thiophen-3-ylethynyl)isoquinolin-3-yl]propanamide]
14 | 703 nM | 430 nM | CC(N)C(=O)Nc1cc2ccccc2c(C#Cc2ccccc2)n1 (stereo not shown) [Example 204, 2-amino-N-[1-(2-phenyl-ethynyl)isoquinolin-3-yl]-propanamide]
15 | 467 nM | 255 nM | CC(N)C(=O)Nc1cc2ccccc2c(C#Cc2cccs2)n1 (stereo not shown) [Example 208, 2-amino-N-[1-(2-thiophen-2-ylethynyl)isoquinolin-3-yl]-propanamide]
16 | 269 nM | 4 nM | CNC(C)C(=O)Nc1ccc(-c2c(C)ncn2C)c(C#Cc2ccccc2)n1 (stereo not shown) [Example 195, N-[5-(3,5-dimethylimidazol-4-yl)-6-(2-phenylethynyl)pyridin-2-yl]-2-(methylamino)propanamide]
17 | 102 nM | 22 nM | CNC(C)C(=O)Nc1ccc(-c2cnc(N3CCN(C)CC3)nc2)c(C#Cc2ccccc2)n1 (stereo not shown) [Example 191, 2-(methylamino)-N-[5-[2-(4-methylpiperazin-1-yl)pyrimidin-5-yl]-6-(2-phenylethynyl)pyridin-2-yl]propanamide]
18 | 102 nM | 23 nM | CNC(C)C(=O)Nc1ccc(-c2cnc(C(=O)OC)nc2)c(C#Cc2ccccc2)n1 (stereo not shown) [Example 194, methyl 5-[6-[[2-(methylamino)-propanoyl]amino]-2-(2-phenyl-ethynyl)pyridin-3-yl]pyrimidine-2-carboxylate]
19 | 87 nM | 30 nM | CNC(C)C(=O)Nc1ccc(-c2cnn(C)c2C)c(C#Cc2ccccc2)n1 (stereo not shown) [Example 189, N-[5-(1,5-dimethylpyrazol-4-yl)-6-(2-phenylethynyl)pyridin-2-yl]-2-(methylamino)propanamide]
20 | 76 nM | 22 nM | CNC(C)C(=O)Nc1ccc(-c2cnc(-n3ccnc3)nc2)c(C#Cc2ccccc2)n1 (stereo not shown) [Example 192, N-[5-(2-imidazol-1-ylpyrimidin-5-yl)-6-(2-phenylethynyl)pyridin-2-yl]-2-(methylamino)propan-amide]
